Source: patent publication US20080299542A1, “IDENTIFICATION OF OXIDATIVELY MODIFIED PEPTIDE SEQUENCES IN THE PROTEOME (LOSCALZO)” (priority 2007, published 2008)
Entries after “also recorded” stand apart in the source; their conditions may differ.

Assays:
[1] = test system: protein disulfides in BAECs; assay: in situ fluorescence imaging of cellular protein disulfides (BAECs); format: cell-based, Bovine; details: for protein disulfide formation: BAECs, mitochondrial inhibitors, FIG. 1b
Protocol: (§1) Detection of cellular disulfide-containing proteins: We developed a method for imaging disulfide-containing proteins in situ. Methanol-fixed cells were treated with 200 mM iodoacetamide in 100 mM Tris, pH 8.3, 5 mM EDTA at 37° C. for 1 hour to block thiols. The cells were then washed six times with Tris-buffered saline, pH 8.0, 5 mM EDTA, after which they were incubated with 5 mM EDTA, 1 mM tris(2-carboxyethyl) phosphine, pH 8.3, at room temperature to reduce disulfides and with 1 mM 5-iodoacetamidofluorescein (5-IAF) in 100 mM Tris to label the resulting thiols for 1 hour. Excess dye was removed by washing the cells repeatedly with TBS. Stained cells fixed to slides were then treated with Prolonged Antifade Mounting Medium, and cell nuclei were counterstained with DAPI. Fluorescent images were taken with a Nikon fluorescence TE 2000 microscope. Fluorescence intensity was quantified by subtracting background fluorescence, then integrating the image with the NIH IMAGEJ program and normalizing by cell number as determined by DAPI fluorescence. Four fields magnified×20 were analyzed per experiment, with 100-200 cells counted per sample.

[2] = test system: Endoglin; assay: endoglin disulfide-dependent detection and localization in HPAECs; format: cell-based, human; details: non-reducing immunoblot; FIG. 1j
Protocol: (§2) Western blotting and indirect immunofluorescence: Cells were lysed in cell lysis buffer (Cell Signaling, Danvers, Mass.). Lysate protein concentration was measured by the Biorad DC protein assay. Equal amounts of proteins were separated by MOPS-SDS-PAGE, then transferred to poly(vinylidene difluoride) membranes (Invitrogen, Carlsbad, Calif.). Membranes were then blocked and the signal detected with a BM Chemiluminescence Blotting kit (Roche Diagnostics, Basel, Switzerland), BM POD precipitating blotting substrate (Roche Diagnostics, Basel, Switzerland), or Supersignal West Femto blotting kit (Pierce, Rockford, Ill.) according to the manufacturer's instructions. For protein inter-subunit disulfide bond detection, cells were lysed in cell lysis buffer containing 200 mM N-ethyl-maleimide and incubated at 37° C. for 1 hr. LDS sample buffer with or without DTT was added to cell lysates, and proteins were separated by MOPS-SDS-PAGE. For indirect immunofluorescence studies, formaldehyde-fixed cells were permeablized with 0.3% Triton for 10 min, blocked with 1% BSA for 30 min, then detected with antibodies. […]

[3] = test system: LOX-1; assay: acetylated LDL (AcLDL) uptake by HPAECs; format: cell-based, human; details: for uptake of acetylated LDL (AcLDL) by HPAECs: mitochondrial inhibitors for 8 hr, FIG. 5
Protocol: (§3) Surface receptor functional assessment: After treatment, cells was incubated with 500 ng/ml Alexa 488-labeled EGF in DMEM containing 1% BSA, 50 μg/ml Alexa-488-labeled transferrin for 10 min, or 10 μg/ml Alexa 488-labeled AcLDL for 30 min in growth medium, and then washed with cold HBSS four times before fixation with formaldehyde at room temperature. Cells were also trypsinzed and ligand uptake quantified by flow cytometry (FACS Calibur). For protein phosphorylation studies, cell lysates were also collected 5 min after stimulation with ligands.

[4] = test system: vWF; assay: multimeric vWF immunoblot / immunofluorescence in HPAECs; format: cell-based, human; details: FIG. 1i
Protocol: Western blotting and indirect immunofluorescence: Cells were lysed in cell lysis buffer (Cell Signaling, Danvers, Mass.). Lysate protein concentration was measured by the Biorad DC protein assay. Equal amounts of proteins were separated by MOPS-SDS-PAGE, then transferred to poly(vinylidene difluoride) membranes (Invitrogen, Carlsbad, Calif.). Membranes were then blocked and the signal detected with a BM Chemiluminescence Blotting kit (Roche Diagnostics, Basel, Switzerland), BM POD precipitating blotting substrate (Roche Diagnostics, Basel, Switzerland), or Supersignal West Femto blotting kit (Pierce, Rockford, Ill.) according to the manufacturer's instructions. For protein inter-subunit disulfide bond detection, cells were lysed in cell lysis buffer containing 200 mM N-ethyl-maleimide and incubated at 37° C. for 1 hr. LDS sample buffer with or without DTT was added to cell lysates, and proteins were separated by MOPS-SDS-PAGE. For indirect immunofluorescence studies, formaldehyde-fixed cells were permeablized with 0.3% Triton for 10 min, blocked with 1% BSA for 30 min, then detected with antibodies. Primary antibodies used in this study include monoclonal or polyclonal antibodies against CD98, PECAM, endoglin, vWF, PDI, pEGFR, EGFR, FGFR, and CD71 from Santa Cruz; against actin, from Sigma, St. Louis, Mo.; against pFGFR, pIGF1R, and IGF1R from Cell Signaling (Danvers, Mass.); against thioredoxin, MnSOD, catalase, and GAPDH from Abcam, Cambridge, Mass.; and against LOX-1 from Serotec, Raleigh, N.C. All secondary fluorescent-labeled or horseradish peroxidase-conjugated antibodies were obtained from Jackson Immunoresearch, West Grove, Pa.

[5] = test system: CD71; assay: transferrin uptake (mediated by CD71) by HPAECs; format: cell-based, human; details: 0.5 mM DTT, 30 min, flow cytometry
Protocol: as §3

[6] = test system: FGFR; assay: bFGF-induced FGFR phosphorylation; format: cell-based; details: in the presence of 0.3 mM DTT; Chang liver cells; FIG. 8d
Protocol: (§4) Surface receptor functional assessment: After treatment, cells was incubated with 500 ng/ml Alexa 488-labeled EGF in DMEM containing 1% BSA, 50 μg/ml Alexa-488-labeled transferrin for 10 min, or 10 μg/ml Alexa 488-labeled AcLDL for 30 min in growth medium, and then washed with cold HBSS four times before fixation with formaldehyde at room temperature. Cells were also trypsinzed and ligand uptake quantified by flow cytometry (FACS Calibur). For protein phosphorylation studies, cell lysates were also collected 5 min after stimulation with ligands. Western blotting and indirect immunofluorescence: Cells were lysed in cell lysis buffer (Cell Signaling, Danvers, Mass.). Lysate protein concentration was measured by the Biorad DC protein assay. Equal amounts of proteins were separated by MOPS-SDS-PAGE, then transferred to poly(vinylidene difluoride) membranes (Invitrogen, Carlsbad, Calif.). Membranes were then blocked and the signal detected with a BM Chemiluminescence Blotting kit (Roche Diagnostics, Basel, Switzerland), BM POD precipitating blotting substrate (Roche Diagnostics, Basel, Switzerland), or Supersignal West Femto blotting kit (Pierce, Rockford, Ill.) according to the manufacturer's instructions. […] For indirect immunofluorescence studies, formaldehyde-fixed cells were permeablized with 0.3% Triton for 10 min, blocked with 1% BSA for 30 min, then detected with antibodies. […]

[7] = test system: EGFR; assay: EGF uptake and EGF-induced EGFR phosphorylation; format: cell-based; details: Chang liver cells
Protocol: as §4

[8] = test system: IGF-1R; assay: IGF-1-induced IGF-1R phosphorylation; format: cell-based; details: in the presence of 0.3 mM DTT; Chang liver cells; FIG. 8c
Protocol: as §4

[9] = test system: GRP94; assay: ER stress marker induction, GRP94; format: cell-based; details: compared to tunicamycin and thapsigargin treatments
Protocol: as §2

[10] = test system: protein disulfides in Chang liver cells; assay: in situ fluorescence imaging of cellular protein disulfides (Chang liver cells); format: cell-based; details: CCCP for 4 hr, FIG. 1a
Protocol: as §1

[11] = test system: CD98; assay: CD98 heterodimer blot in Chang liver cells; format: cell-based; details: mitochondrial inhibitor treated
Protocol: as §2

[12] = test system: HPAECs; assay: mitochondrial membrane potential by JC-1 fluorescence; format: cell-based, human; details: after CCCP treatment, FIG. 5b
Protocol: Mitochondrial membrane potential measurement: Cells were incubated with medium containing 1 ug/ml JC-1 for […], washed with HBSS, and then observed by fluorescence microscopy immediately. Alternatively, fluorescence was measured with a GEMINI XPS microplate reader, with an excitation wavelength of 488 nm and an emission wavelength of 536 nm, as well as an excitation wavelength of 528 nm and an emission wavelength 590 nm. Mitochondrial membrane potential was expressed as the ratio of emission at 590 nm to that at 536 nm.

[13] = test system: GRP78; assay: ER stress marker induction, GRP78; format: cell-based; details: compared to tunicamycin and thapsigargin treatments
Protocol: as §2

Q: Which results are given for `O=C(CC(=O)C(F)(F)F)c1cccs1` [TTFA, thienoyltrifluoroacetone]?
A: protein disulfide formation [1]: decreased; endoglin detected by P4A4 antibody [2]: less endoglin was detected; uptake of acetylated LDL (AcLDL) by HPAECs [3]: decreased

Q: Which “disulfide-linked multimeric vWF” value [4] does the source give for `CCCCS(=N)(=O)CCC(N)C(=O)O` (stereo not shown) [BSO, buthionine sulfoximine] here?
A: increased

Q: For `O[C@H](CS)[C@H](O)CS` (racemic) [DTT, dithiothreitol], which uptake of transferrin [5] is on record?
A: did not change

Q: And the “phosphorylation of FGFR” value [6]?
A: completely inhibited

Q: And the “uptake of EGF” value ([7]; 0.5 mM DTT, 30 min, flow cytometry)?
A: did not change

Q: What about the “EGFR activation by EGF” value ([7]; in the presence of 0.5 mM DTT) of the same compound?
A: fully activated

Q: What about the “phosphorylation of IGF-1Rβ” value [8] of the same compound?
A: completely inhibited

Q: And the “uptake of AcLDL by HPAECs” value ([3]; 0.5 mM DTT, 30 min, flow cytometry, FIG. 8a)?
A: decreased

Q: Which protein disulfide formation [1] does the source give for `CO/C(=C/C(N)=O)[C@H](C)[C@H](/C=C/c1csc(-c2csc([C@@H](C)/C=C/C=C/C(C)C)n2)n1)OC` [myxothiazol] here?
A: decreased

Q: With `C=C(C)[C@H]1Cc2c(ccc3c2O[C@@H]2COc4cc(OC)c(OC)cc4[C@@H]2C3=O)O1` [rotenone] as the compound, how does the protein disulfide formation [1] read?
A: decreased

Q: `C[C@]12CC[C@H](O)CC1=CC[C@@H]1[C@@H]2CC[C@]2(C)C(=O)CC[C@@H]12` [DHEA, dehydroepiandrosterone] was tested. Which “disulfide-linked multimeric vWF” value [4] did it give?
A: increased

Q: `CCCCCC[C@H]1C(=O)O[C@H](C)[C@H](NC(=O)c2cccc(NC=O)c2O)C(=O)O[C@@H](C)[C@@H]1OC(=O)CC(C)C` [ATM, antimycin A] was tested. Which protein disulfide formation [1] did it give?
A: least effective

Q: Which “inhibition of disulfide formation” value ([1]; FIG. 1c, p<0.01, cell type not stated) does the source give for `O=c1c2ccccc2[se]n1-c1ccccc1` [ebselen] here?
A: 55%

Q: Which “upregulation of GRP94” value [9] does the source give for `N#CC(C#N)=NNc1cccc(Cl)c1` [CCCP, carbonylcyanide m-chlorophenylhydrazone] here?
A: did not induce significant upregulation

Q: And the “disulfide-linked multimeric vWF” value [4]?
A: dissociation of disulfide-linked multimeric vWF

Q: And the “overall protein disulfide signal” value [10]?
A: decreased

Q: And the protein disulfide formation [1]?
A: decreased; also recorded: most effective

Q: And the “effect on protein disulfide formation in MitoCAT overexpressing cells” value ([1]; CCCP for 8 hrs, FIG. 4)?
A: no longer had any effect

Q: What about the “endoglin detected by P4A4 antibody” value [2] of the same compound?
A: less endoglin was detected

Q: And the “heterodimer CD98” value [11]?
A: remained intact

Q: What about the “mitochondrial membrane potential (MMP)” value [12] of the same compound?
A: immediate loss

Q: What about the “uptake of acetylated LDL (AcLDL) by HPAECs” value [3] of the same compound?
A: decreased

Q: What about the “upregulation of GRP78” value [13] of the same compound?
A: did not induce significant upregulation
